According to patent US8158623B2, “Heptacyclic compounds and the pharmaceutical uses thereof for preventing and treating diabetes and metabolic syndrome” (Shanghai Institute of Materia Medica Chinese Academy of …, priority 2007, dated 2012):
Where “and” joins values, the source holds several entries; their conditions need not be identical. Equal entries are not always repeated.

What was measured:
ob/ob mice [1] = assay: Hypoglycemic effect of compound F7, fasting blood glucose, 3 weeks; assay type: in vivo; details: oral 50 mg/kg once daily
Description: Genetic spontaneous diabetes ob/ob mice were purchased from Jackson (USA), and maintained in a SPF facility (temperature: 22-24° C., humidity: 45-80%, illumination: 150-300 Lx, 12/12-hour light/dark cycle). Fasting blood glucose was determined for 3 days continuously when the mice were 7 weeks old. The mice were grouped into the treatment group and the control group (8 animals per group) according to the results determined. The two groups were administered orally with compound F7 (50 mg/kg) and a solution of 0.1% Tween 80 respectively, once daily for 3 weeks. Fasting Blood Glucose levels of mice were measured regularly.

3T3-L1 adipocytes = assay: Glucose uptake in 3T3-L1 adipocytes (3H-labelled 2-deoxyglucose); assay type: cell-based
Description: The effect of the compounds on baseline or insulin-stimulated glucose uptake was evaluated, using the model of glucose uptake in 3T3-L1 adipocytes.
Adipose tissue is the target of glucose metabolism in vivo. The sensitivity for insulin and availability of glucose in adipose tissues are tightly associated with the insulin resistance. The transportation of glucose into adipocytes is a rate-limiting step for the glucose metabolism, and also an important indicator for evaluating the sensitivity for insulin in adipose tissue. 3T3-L1 is a kind of pre-adipocyte, and can become adipocyte after differentiated completely. Therefore, 3T3-L1 is a desirable model for the glucose transport.
Pre-adipocyte, 3T3-L1 was induced to differentiate under certain conditions. After 3T3-L1 differentiated into adipocytes, the compounds of interest with different concentrations and DMSO (used as control) can be added and incubated with the adipocytes for different periods, then the glucose uptake could be determined. For evaluating the ability for a compound to stimulate glucose uptake, the baseline and insulin-induced glucose uptake were determined, and the increase in baseline and insulin-induced glucose uptake upon treatment of the compounds as compared with control group (with 0.1% DMSO) is calculated, based on the ^3H-labelled 2-deoxyglucose inside the cells.
3T3-L1 cells purchased from Karolinska Institute (Sweden) were cultured in DMEM medium containing 10% fetal calf serum at 37° C., under 5% CO2. The cells were passaged every 3-4 days. The cells were inoculated into 12-well plate. Upon confluence, culture medium containing 0.5 mM 3-isobutyl-1-methylxanthine, 0.25 μM dexamethasone and 5 μg/ml insulin was added and cultured for 3 days. Then, the culture medium was replaced by a medium containing 5 μg/ml insulin and further cultured for 3 days. The insulin was removed, and the cells had differentiated completely into mature adipocytes after 2 days which could be used to determine the glucose uptake.
23 compounds chosen by the inventors were added into the culture medium of adipocytes in a dose of 10 μM. After incubation for 2 h, the effect of the compounds on glucose uptake in 3T3-L1 cells was observed. Culture medium without compounds was used as negative control. The control group only supplemented with insulin and the experiment group supplemented with compounds plus insulin were also employed to observe the effect of the compounds on glucose uptake.

ob/ob mice [2] = assay: Effect of F7 on glucose and lipid metabolic disorder, serum biochemical indicators; assay type: in vivo; details: oral 50 mg/kg once daily for 3 weeks
Description: Genetic spontaneous diabetes ob/ob mice were purchased from Jackson (USA), and maintained in a SPF facility (temperature: 22-24° C., humidity: 45-80%, illumination: 150-300 Lx, 12/12-hour light/dark cycle). Fasting blood glucose was determined daily for 3 days continuously when the mice were 7 weeks old. The mice were grouped into the treatment group and the control group (8 animals per group) according to the results determined. The two groups were administered orally with compound F7 (50 mg/kg) and a solution of 0.1% Tween 80 respectively, once daily for 3 weeks. Another group of C57 mice was used as normal control. At the end of administration, blood samples were collected in each group, the serum was separated and serum biochemical indicators were detected.

## COc1cc(C(=O)O)c2c(c1C)OC(=O)c1c(C)cc(O)c(C=O)c1O2 [Compound F7, 4-Formyl-3-hydroxy-8-methoxy-1,9-dimethyl-11-oxo-11H-dibenzo[b,e][1,4]dioxepine-6-carboxylic acid]
ob/ob mice [1]; 0 day
  Fasting Blood Glucose: 14.0 ± 1.8 mM
ob/ob mice [1]; 4 day
  Fasting Blood Glucose: 11.3 ± 2.5 mM
ob/ob mice [1]; 8 day
  Fasting Blood Glucose: 11.1 ± 2.0 mM
ob/ob mice [1]; 11 day
  Fasting Blood Glucose: 8.8 ± 1.5 mM
ob/ob mice [1]; 15 day
  Fasting Blood Glucose: 8.5 ± 2.5 mM
ob/ob mice [1]; 21 day, 50 mg/kg
  Fasting Blood Glucose: 7.4 mM and 7.4 ± 1.3 mM
ob/ob mice [1]; day 15 after administration
  Reduction of fasting blood glucose: 42%
3T3-L1 adipocytes; 10 μM, 2 h incubation, with insulin, relative to control without insulin
  Glucose uptake, Mean, Compound + Insulin Group (Control Group = 1.000): 3.788
3T3-L1 adipocytes; Mus musculus, 3T3-L1, 2 h incubation, baseline (without insulin), relative to control, read-out: Glucose uptake, Mean, Compound Group (Control Group = 1.000)
  fold induction at 10 µM: 1.19
ob/ob mice [2]
  CHOL (total cholesterol), serum: 6.0 ± 0.8 mmol/L
  FRU (fructosamine), serum: 225.0 ± 40.4 µmol/L
  NFFA (unsaturated free fatty acid), serum: 1.15 ± 0.17 mmol/L
  TG (triglycerides), serum: 72.1 ± 11.1 mg/dL
  UA (uric acid), serum: 316 ± 109 µM
